Laboratory results as given in patent US11458138B2 (Novartis AG, priority 2017, dated 2022).
pIC50: −log10 of the molar value.

Legend:
LATS1 = LATS1 (Homo sapiens (Human), UniProt O95835); assay: LATS1 biochemical assay (Table 1A, Compound Examples 1-290; method in the earlier part)
[1] = test system: Phospho-YAP (Ser127) in JHH-5 cells; assay: pYAP HTRF Assay (JHH-5 cells); assay type: cell-based; settings: 2 hours
In short: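 JHH-5 cells (24000/well) cultured 24 h at 37 °C in William's E with 10% FBS, then exposed to compounds for 2 h at 37 °C. After lysis, pYAP d2/cryptate antibodies incubated 18 h at room temperature; HTRF ratio 665/620 nm ×10000.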

[2] = molecular target: Human LATS2 kinase domain protein (Homo sapiens (Human), UniProt Q9NRM7); assay: LATS2 Biochemical Caliper Assay (Compound Examples 1-290); settings: 400 micromolar ATP
Human LATS2 kinase domain protein, sequence (Q9NRM7 553-1088): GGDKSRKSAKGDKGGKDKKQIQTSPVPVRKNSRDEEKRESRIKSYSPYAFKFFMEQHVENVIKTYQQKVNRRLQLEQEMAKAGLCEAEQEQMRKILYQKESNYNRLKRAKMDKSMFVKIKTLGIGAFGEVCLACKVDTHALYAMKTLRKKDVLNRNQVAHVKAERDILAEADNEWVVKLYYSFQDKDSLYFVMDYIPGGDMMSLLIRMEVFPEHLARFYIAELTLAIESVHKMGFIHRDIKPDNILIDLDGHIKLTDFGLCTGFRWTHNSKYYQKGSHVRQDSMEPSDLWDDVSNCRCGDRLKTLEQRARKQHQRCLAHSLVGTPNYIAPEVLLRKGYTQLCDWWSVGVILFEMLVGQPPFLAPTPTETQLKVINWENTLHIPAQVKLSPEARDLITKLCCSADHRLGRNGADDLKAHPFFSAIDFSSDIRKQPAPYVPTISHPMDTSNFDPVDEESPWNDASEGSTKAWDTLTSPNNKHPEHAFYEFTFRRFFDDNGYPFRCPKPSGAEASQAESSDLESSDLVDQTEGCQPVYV
Human LATS2 kinase domain protein, sequence (Q7L9L4 whole entry partner, the tested form may be a part): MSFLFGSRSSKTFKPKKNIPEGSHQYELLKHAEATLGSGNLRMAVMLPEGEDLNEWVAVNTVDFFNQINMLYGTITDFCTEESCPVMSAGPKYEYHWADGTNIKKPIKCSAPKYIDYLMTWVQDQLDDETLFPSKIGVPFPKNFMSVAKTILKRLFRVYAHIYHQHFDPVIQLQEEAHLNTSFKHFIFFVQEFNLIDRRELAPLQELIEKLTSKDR
In short: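 LATS2 catalytic domain (aa 553-1088), co-purified with His-tagged MOBKL1A, reacted with compound for 3 h at 25° C before EDTA (25 mM) stop. Substrate and product separated by microfluidic electrophoresis (Caliper LabChip 3000) and quantified by fluorescence intensity.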

limbal stem cells (LSCs) = assay: Differentiation of expanded LSCs into corneal epithelium cells (p63alpha / keratin 12); assay type: cell-based, human; settings: transferred to conditions that enable differentiation
Excerpt: Shown are views where the transition from the p63alpha-positive cell identity to the keratin-12 identity are occurring.
These characteristics can be observed by immunohistochemistry or FACS.

[3] = test system: Corneal Endothelial Cells (CECs); assay: CEC proliferation, Incucyte confluence by real-time live-cell analysis; assay type: cell-based, human; settings: vs vehicle DMSO
Excerpt: FIG. 16: CECs grown in presence or absence of LATS inhibitors. An Incucyte system (Essen Biosciences) was used to measure CEC confluence by real-time quantitative live-cell analysis over a time course. Compound ex. 49 (black squares) and ex.
If it is desired to measure the cell number or expansion of the cell population, this may be done for example by taking an aliquot and performing immunocytochemistry (e.g. to count nuclei stained with Sytox Orange) or by live cell imaging under brightfield microscope to count the number of cells or by performing real-time quantitative live-cell analysis of cell confluence at various time points during the cell population expansion phase of the method according to the invention.

[4] = test system: phospho-YAP (ser127) in human CECs; assay: YAP phosphorylation by western blot in CECs; assay type: cell-based; settings: 10 micromolar, 1 hour
Procedure: Cells obtained as described in Example C1 were detached from the culture dish with 1 mg/ml collagenase for 15 minutes at 37° C., cell suspensions were rinsed by centrifugation and plated in corneal endothelial cell culture medium (human endothelial SF medium (Invitrogen) with human serum) in 6-well plates (Corning) and cultured for 2 to 4 days. The medium was then replaced by fresh corneal endothelial cell culture medium (human endothelial SF medium (Invitrogen) with human serum) supplemented with LATS inhibitor, compound example no. […] Cells were cultured under these conditions for 1 hour at 37° C. in 5% CO2.
Cell pellets were obtained by trypsin dissociation and centrifugation and washed with PBS. The pellets were lysed with […] of RIPA lysis buffer containing protease inhibitor cocktail (Life Technologies) for 30 minutes, with vortexing every 10 minutes. The cell debris were then pelleted at 4° C. for 15 minutes at 14k rpm and the protein lysate was collected. Protein concentration was quantified using a micro BCA kit (Pierce). Fifteen (15) micrograms of total protein was loaded in each well of 4-20% TGX gels (BioRad) and Western blotting was performed according to the manufacturer's instructions. […] Membranes were stained with HRP-conjugated secondary antibodies, rinsed and imaged using a ChemiDoc system (Biorad) according to the manufacturer's instructions.

YAP in human CECs = assay: Intracellular YAP distribution in corneal endothelial cells (CECs); assay type: cell-based; settings: 10 micromolar, 24 hours
Procedure: Cells obtained as described in Example C1 were plated in glass-bottom black wall 24-well dishes in corneal endothelial cell culture medium (human endothelial SF (serum free) medium (Invitrogen) with human serum) supplemented with LATS inhibitor compound example no. 133 or compound example no. […] Cells were cultured under these conditions for 24 hours at 37° C. in 5% CO2.
To measure the effect of the LATS inhibitors on the downstream target YAP, intracellular YAP distribution was analyzed by immunohistochemistry. Cell cultures were fixed with 4% PFA for 20 minutes, permeabilized and blocked in a blocking solution of 0.3% Triton X-100 (Sigma-Aldrich) and 3% donkey serum in PBS for 30 minutes. Cells were then labeled with primary antibody in the blocking solution for 12 hours at 4° C. Primary antibody used was anti-YAP from Santa Cruz Biotechnology. Samples were washed in PBS three times and donkey-raised secondary antibody Alexa Fluor 488 (Molecular Probes) at 1:500 dilution were applied for 30 minutes at room temperature. […] Fluorescence was observed using a Zeiss LSM 880 confocal microscope.

LATS1, sequence (O95835 whole entry, looked up): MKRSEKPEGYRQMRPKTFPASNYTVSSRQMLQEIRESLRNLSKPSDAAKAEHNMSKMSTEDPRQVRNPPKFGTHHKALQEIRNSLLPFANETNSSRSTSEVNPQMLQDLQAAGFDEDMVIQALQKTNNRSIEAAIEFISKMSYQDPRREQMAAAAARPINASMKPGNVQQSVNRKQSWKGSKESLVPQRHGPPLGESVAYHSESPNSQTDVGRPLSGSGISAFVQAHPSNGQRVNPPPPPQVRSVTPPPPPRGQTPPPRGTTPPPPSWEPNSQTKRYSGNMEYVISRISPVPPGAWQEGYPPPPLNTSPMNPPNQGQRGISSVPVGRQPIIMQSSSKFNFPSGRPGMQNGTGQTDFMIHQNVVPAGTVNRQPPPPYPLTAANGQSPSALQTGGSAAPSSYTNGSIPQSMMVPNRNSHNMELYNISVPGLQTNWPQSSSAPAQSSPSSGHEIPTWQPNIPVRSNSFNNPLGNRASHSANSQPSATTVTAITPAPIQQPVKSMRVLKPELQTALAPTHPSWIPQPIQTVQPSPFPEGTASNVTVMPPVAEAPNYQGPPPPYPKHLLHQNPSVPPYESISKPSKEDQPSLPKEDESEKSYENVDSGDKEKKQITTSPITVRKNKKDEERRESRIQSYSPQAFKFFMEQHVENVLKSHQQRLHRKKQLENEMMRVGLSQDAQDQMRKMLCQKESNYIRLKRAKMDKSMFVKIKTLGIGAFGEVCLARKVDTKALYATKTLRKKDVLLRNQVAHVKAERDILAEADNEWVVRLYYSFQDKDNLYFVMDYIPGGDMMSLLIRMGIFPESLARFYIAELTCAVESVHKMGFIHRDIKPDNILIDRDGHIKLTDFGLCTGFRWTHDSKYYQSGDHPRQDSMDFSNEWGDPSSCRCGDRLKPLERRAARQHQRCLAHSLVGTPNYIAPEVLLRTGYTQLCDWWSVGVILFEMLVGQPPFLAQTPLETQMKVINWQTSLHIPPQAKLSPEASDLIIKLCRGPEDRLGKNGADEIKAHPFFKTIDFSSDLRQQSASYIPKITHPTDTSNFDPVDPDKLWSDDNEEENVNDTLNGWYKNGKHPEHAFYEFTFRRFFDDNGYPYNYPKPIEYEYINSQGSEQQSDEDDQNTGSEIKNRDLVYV
LATS1, sequence (Q7L9L4 whole entry partner, looked up): as the sequence (Q7L9L4 whole entry partner, the tested form may be a part) above

pIC50 (LATS1)	pIC50 [1]	pIC50 [2]	SMILES	differentiation of expanded LSCs into corneal epithelium cells (keratin 12) (limbal stem cells (LSCs))	CEC proliferation (confluence over time) [3]	YAP phosphorylation levels in human CECs (western blot) [4]	YAP immunostaining in CECs (YAP in human CECs)
8.70	< 5.00	7.30	CCCNc1nc(-c2ccncc2)nc2cnccc12 [Example 14, N-propyl-2-(pyridin-4-yl)pyrido[3,4-d]pyrimidin-4-amine]	–	–	–	–
9.00	5.80	7.68	CC(C)(O)CC(C)(C)Nc1nc(-c2ccncc2)nc2cnccc12 [Example 49, 2,4-dimethyl-4-{[2-(pyridin-4-yl)pyrido[3,4-d]pyrimidin-4-yl]amino}pentan-2-ol]	can differentiate into corneal epithelium cells	induced strong CEC proliferation	reduction in YAP phosphorylation levels in human CECs	stronger
8.70	5.24	7.52	c1cc(-c2nc(NC3CCCC3)c3ccncc3n2)ccn1 [Example 65, N-cyclopentyl-2-(pyridin-4-yl)pyrido[3,4-d]pyrimidin-4-amine]	–	–	–	–
9.00	6.22	8.40	CC(C)(C)Nc1cc(-c2ccncc2)nc2cnccc12 [Example 261, N-(tert-butyl)-2-(pyridin-4-yl)-1,7-naphthyridin-4-amine]	can differentiate into corneal epithelium cells	–	–	–

SMILES	pIC50 (LATS1)	pIC50 [1]	pIC50 [2]	differentiation of expanded LSCs into corneal epithelium cells (keratin 12) (limbal stem cells (LSCs))	CEC proliferation (confluence over time) [3]	YAP phosphorylation levels in human CECs (western blot) [4]	YAP immunostaining in CECs (YAP in human CECs)
Cc1n[nH]cc1-c1nc(NC2(C)CC2)c2ccncc2n1 [Example 133, 2-(3-methyl-1H-pyrazol-4-yl)-N-(1-methylcyclopropyl)pyrido[3,4-d]pyrimidin-4-amine]	8.70	5.77	8.40	–	induced strong CEC proliferation	reduction in YAP phosphorylation levels in human CECs	stronger
